From ChEMBL document CHEMBL3734723, “Synthesis and anticancer activity of 6-heteroarylcoumarins” (2015)

Legend:
Format in all cases: functional
[1] = Cytotoxicity against human UO31 cells assessed as cell growth at 10 uM incubated for 48 hrs by sulforhodamine B assay; conditions: UO-31, 48 h, read-out: Activity
NCI-H522 = experiment: Cytotoxicity against human NCI-H522 cells assessed as cell growth at 10 uM incubated for 48 hrs by sulforhodamine B assay; conditions: NCI-H522, 48 h, read-out: Activity
[2] = Cytotoxicity against human OVCAR8 cells assessed as cell growth at 10 uM incubated for 48 hrs by sulforhodamine B assay; conditions: OVCAR-8, 48 h, read-out: Activity
[3] = Cytotoxicity against human RPMI8226 cells assessed as cell growth at 10 uM incubated for 48 hrs by sulforhodamine B assay; conditions: RPMI-8226, 48 h, read-out: Activity
SK-MEL-5 = experiment: Cytotoxicity against human SK-MEL-5 cells assessed as cell growth at 10 uM incubated for 48 hrs by sulforhodamine B assay; conditions: SK-MEL-5, 48 h, read-out: Activity
[4] = Cytotoxicity against human SF295 cells assessed as cell growth at 10 uM incubated for 48 hrs by sulforhodamine B assay; conditions: SF-295, 48 h, read-out: Activity
[5] = Cytotoxicity against human UACC62 cells assessed as cell growth at 10 uM incubated for 48 hrs by sulforhodamine B assay; conditions: UACC-62, 48 h, read-out: Activity
T47D = experiment: Cytotoxicity against human T47D cells assessed as cell growth at 10 uM incubated for 48 hrs by sulforhodamine B assay; conditions: read-out: Activity
[6] = Cytotoxicity against human PC3 cells assessed as cell growth at 10 uM incubated for 48 hrs by sulforhodamine B assay; conditions: PC-3, 48 h, read-out: Activity
CCRF-CEM = experiment: Cytotoxicity against human CCRF-CEM cells assessed as cell growth at 10 uM incubated for 48 hrs by sulforhodamine B assay; conditions: read-out: Activity
[7] = Cytotoxicity against human HL-60(TB) cells assessed as cell growth at 10 uM incubated for 48 hrs by sulforhodamine B assay; conditions: HL-60, 48 h, read-out: Activity
[8] = Cytotoxicity against human HOP92 cells assessed as cell growth at 10 uM incubated for 48 hrs by sulforhodamine B assay; conditions: HOP-92, 48 h, read-out: Activity
SR = experiment: Cytotoxicity against human SR cells assessed as cell growth at 10 uM incubated for 48 hrs by sulforhodamine B assay; conditions: read-out: Activity
K562 = experiment: Cytotoxicity against human K562 cells assessed as cell growth at 10 uM incubated for 48 hrs by sulforhodamine B assay; conditions: K562, 48 h, read-out: Activity
MDA-MB-468 = experiment: Cytotoxicity against human MDA-MB-468 cells assessed as cell growth at 10 uM incubated for 48 hrs by sulforhodamine B assay; conditions: MDA-MB-468, 48 h, read-out: Activity
[9] = Cytotoxicity against human […] cells assessed as cell growth at 10 uM incubated for 48 hrs by sulforhodamine B assay; conditions: read-out: Activity
[10] = Cytotoxicity against human MOLT4 cells assessed as cell growth at 10 uM incubated for 48 hrs by sulforhodamine B assay; conditions: MOLT-4, 48 h, read-out: Activity
[11] = Cytotoxicity against human HCC2998 cells assessed as cell growth at 10 uM incubated for 48 hrs by sulforhodamine B assay; conditions: HCC 2998, 48 h, read-out: Activity
NCI-H23 = experiment: Cytotoxicity against human NCI-H23 cells assessed as cell growth at 10 uM incubated for 48 hrs by sulforhodamine B assay; conditions: NCI-H23, 48 h, read-out: Activity
[12] = Cytotoxicity against human NCI-ADR-RES cells assessed as cell growth at 10 uM incubated for 48 hrs by sulforhodamine B assay; conditions: read-out: Activity
EKVX = experiment: Cytotoxicity against human EKVX cells assessed as cell growth at 10 uM incubated for 48 hrs by sulforhodamine B assay; conditions: read-out: Activity
KM12 = experiment: Cytotoxicity against human KM12 cells assessed as cell growth at 10 uM incubated for 48 hrs by sulforhodamine B assay; conditions: KM12, 48 h, read-out: Activity
[13] = Cytotoxicity against human OVCAR4 cells assessed as cell growth at 10 uM incubated for 48 hrs by sulforhodamine B assay; conditions: OVCAR-4, 48 h, read-out: Activity
ACHN = experiment: Cytotoxicity against human ACHN cells assessed as cell growth at 10 uM incubated for 48 hrs by sulforhodamine B assay; conditions: read-out: Activity
[14] = Cytotoxicity against human HCT15 cells assessed as cell growth at 10 uM incubated for 48 hrs by sulforhodamine B assay; conditions: HCT-15, 48 h, read-out: Activity
MCF7 = experiment: Cytotoxicity against human MCF7 cells assessed as cell growth at 10 uM incubated for 48 hrs by sulforhodamine B assay; conditions: MCF7, 48 h, read-out: Activity
NCI-H460 = experiment: Cytotoxicity against human NCI-H460 cells assessed as cell growth at 10 uM incubated for 48 hrs by sulforhodamine B assay; conditions: NCI-H460, 48 h, read-out: Activity
[15] = Cytotoxicity against human LOXIMVI cells assessed as cell growth at 10 uM incubated for 48 hrs by sulforhodamine B assay; conditions: LOX IMVI, read-out: Activity
786-0 = experiment: Cytotoxicity against human 786-0 cells assessed as cell growth at 10 uM incubated for 48 hrs by sulforhodamine B assay; conditions: 786-0, 48 h, read-out: Activity
MDA-MB-435 = experiment: Cytotoxicity against human MDA-MB-435 cells assessed as cell growth at 10 uM incubated for 48 hrs by sulforhodamine B assay; conditions: MDA-MB-435, 48 h, read-out: Activity
[16] = Cytotoxicity against human OVCAR3 cells assessed as cell growth at 10 uM incubated for 48 hrs by sulforhodamine B assay; conditions: OVCAR-3, 48 h, read-out: Activity
A549 = experiment: Cytotoxicity against human A549 cells assessed as cell growth at 10 uM incubated for 48 hrs by sulforhodamine B assay; conditions: A549, 48 h, read-out: Activity
[17] = Cytotoxicity against human HCT116 cells assessed as cell growth at 10 uM incubated for 48 hrs by sulforhodamine B assay; conditions: HCT-116, 48 h, read-out: Activity

## Cc1c(O)c(-c2ccnc(S)n2)cc2c3c(c(=O)oc12)CCCC3
[1]
  growth at 10 µM: 60.8%
NCI-H522
  growth at 10 µM: 68.8%
[2]
  growth at 10 µM: 64.5%

## CCCc1cc(=O)oc2c(C)c(O)c(-c3ccc4c(=O)n(-c5ccccc5)nc-4[nH]3)cc12
[3]
  growth at 10 µM: 65.8%
SK-MEL-5
  growth at 10 µM: 67.1%
[4]
  growth at 10 µM: 69.1%
[5]
  growth at 10 µM: 60.6%

## Cc1c(O)c(-c2cc3ccccc3[nH]2)cc2c3c(c(=O)oc12)CCC3
T47D
  growth at 10 µM: 69.8%
NCI-H522
  growth at 10 µM: 61.6%
[6]
  growth at 10 µM: 67%
[3]
  growth at 10 µM: 51.8%
[5]
  growth at 10 µM: 59.1%

## CCCCc1cc(=O)oc2c(C)c(O)c(-c3ccnc(NC#N)n3)cc12
CCRF-CEM
  growth at 10 µM: -58.3%

## CCCCc1cc(=O)oc2c(C)c(O)c(-c3ccnc4nnnn34)cc12
[1]
  growth at 10 µM: 89.4%

## Cc1c(O)c(-c2ccnc(N)n2)cc2c3c(c(=O)oc12)CCC3
[7]
  growth at 10 µM: -34.4%
[8]
  growth at 10 µM: -5.18%
CCRF-CEM
  growth at 10 µM: -73.3%
SR
  growth at 10 µM: 4.79%
[3]
  growth at 10 µM: 55.6%

## Cc1cc(=O)oc2c(C)c(O)c(-c3cc4ccccc4[nH]3)cc12
[1]
  growth at 10 µM: 51.8%
K562
  growth at 10 µM: 59.3%
NCI-H522
  growth at 10 µM: 58.2%
[6]
  growth at 10 µM: 66.5%
MDA-MB-468
  growth at 10 µM: 64.3%
SR
  growth at 10 µM: 65.2%
[3]
  growth at 10 µM: 43.8%
SK-MEL-5
  growth at 10 µM: 48.5%
[5]
  growth at 10 µM: 48.8%

## CCCc1cc(=O)oc2c(C)c(O)c(-c3ccc(C#N)c(=O)[nH]3)cc12
[9]
  growth at 10 µM: 90%

## Cc1cc(=O)oc2c(C)c(O)c(-c3cc[nH]n3)cc12
[7]
  growth at 10 µM: -10.9%
CCRF-CEM
  growth at 10 µM: -68.5%
[3]
  growth at 10 µM: 64.3%

## Cc1cc(=O)oc2c(C)c(O)c(-c3ccnc4nc5ccccc5n34)cc12
CCRF-CEM
  growth at 10 µM: -81.9%

## Cc1c(O)c(-c2cc[nH]n2)cc2c3c(c(=O)oc12)CCC3
[7]
  growth at 10 µM: -20.4%
[8]
  growth at 10 µM: 65.7%
CCRF-CEM
  growth at 10 µM: -69.3%
SR
  growth at 10 µM: 16.5%
[10]
  growth at 10 µM: -36%

## Cc1c(O)c(-c2cc3ccccc3[nH]2)cc2c3c(c(=O)oc12)CCCC3
[11]
  growth at 10 µM: 53.7%
[1]
  growth at 10 µM: 44%
K562
  growth at 10 µM: 44.3%
NCI-H23
  growth at 10 µM: 31.5%
[12]
  growth at 10 µM: 49.2%
EKVX
  growth at 10 µM: 60.7%
KM12
  growth at 10 µM: 64.8%
NCI-H522
  growth at 10 µM: 39.6%
[13]
  growth at 10 µM: 61.6%
[6]
  growth at 10 µM: 52.8%
[8]
  growth at 10 µM: 36.7%
[9]
  growth at 10 µM: 68.8%
MDA-MB-468
  growth at 10 µM: 41.6%
ACHN
  growth at 10 µM: 66.9%
SR
  growth at 10 µM: 60.2%
[3]
  growth at 10 µM: 38.7%
[14]
  growth at 10 µM: 67.3%
[10]
  growth at 10 µM: 62.2%
SK-MEL-5
  growth at 10 µM: 52.2%
MCF7
  growth at 10 µM: 67.3%
NCI-H460
  growth at 10 µM: 47.8%
[15]
  growth at 10 µM: 68.2%
786-0
  growth at 10 µM: 69.9%
MDA-MB-435
  growth at 10 µM: 65.3%
[16]
  growth at 10 µM: 64.6%
A549
  growth at 10 µM: 58.5%
[17]
  growth at 10 µM: 51.7%
[4]
  growth at 10 µM: 65.7%
[5]
  growth at 10 µM: 48.2%
